The record followed here is BindingDB's records for doi:10.1021/jm00128a028 (Roche Research Center, 1989).

The test concerns the target Thromboxane-A synthase (Rattus norvegicus) (UniProt P49430). The test is described as follows: Inhibitory activity to inhibit Inophore-induced arachidonic acid metabolism (inhibition of TXB2 formation) in rat.

Chain of Thromboxane-A synthase (Rattus norvegicus) (P49430 whole entry, looked up): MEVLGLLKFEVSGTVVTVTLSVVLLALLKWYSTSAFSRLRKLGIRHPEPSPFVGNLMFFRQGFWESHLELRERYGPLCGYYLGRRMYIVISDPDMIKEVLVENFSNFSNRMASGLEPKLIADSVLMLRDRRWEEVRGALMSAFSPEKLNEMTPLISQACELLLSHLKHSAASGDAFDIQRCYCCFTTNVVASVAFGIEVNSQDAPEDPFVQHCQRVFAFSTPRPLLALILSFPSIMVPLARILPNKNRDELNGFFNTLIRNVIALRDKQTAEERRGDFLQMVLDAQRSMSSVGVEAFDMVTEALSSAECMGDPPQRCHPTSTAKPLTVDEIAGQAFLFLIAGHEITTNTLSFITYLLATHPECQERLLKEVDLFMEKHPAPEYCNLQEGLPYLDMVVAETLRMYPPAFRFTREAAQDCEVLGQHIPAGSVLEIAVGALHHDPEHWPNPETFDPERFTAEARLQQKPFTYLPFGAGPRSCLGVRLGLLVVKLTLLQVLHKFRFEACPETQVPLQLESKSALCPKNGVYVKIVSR

Molecule `CCCc1c(OCCCCCOc2cc3c(cc2C(C)=O)CCC(C(=O)O)O3)ccc(C(C)=O)c1O` (stereo not drawn) [Ro-23-3544] had an IC50 of 6000 nM.
In the case of `CC(C)c1ccc2c(c1)c(SC(C)(C)C)c(CC(C)(C)C(=O)O)n2Cc1ccc(Cl)cc1`, the IC50 was determined as 2000 nM.
As for `COc1ccc2c(c1)c(CC(=O)O)c(C)n2C(=O)c1ccc(Cl)cc1` [indometacin], the figure is 100 nM.

As a reminder, the IC50 is the concentration needed to halve the response being measured. Low values mean inhibition by little substance, high ones a need for much substance.
